“Also recorded” adds a separate entry of the source. Read-outs that look alike come from different tables or passages of the source.
Key:
in vitro = format: cell-based, human; details: human, hERG transduced U-2 OS cells
[1] = system: hERG transduced U-2 OS cells; assay: in vitro; format: cell-based, human; details: for IC50: read-out: Cytotoxicity IC50 (cell viability, intracellular ATP content), up to 92 μM
KV1.3 versus hERG [2] = molecular target: T1, KV1.3 versus hERG (Homo sapiens, UniProt P22001); assay: KV1.3 thallium influx assay in KV1.3 stably transfected CHO DUKX cells; details: human
[3] = molecular target: human KV1.3 voltage gated K+ channel (Homo sapiens, UniProt P22001); assay: as above; details: for Selectivity Fold (hERG over KV1.3): potency difference KV1.3 IC50 / hERG IC50, thallium influx assays; for KV 1.3 Efficacy (inhibition of thallium influx as a % of positive control) / KV 1.3 IC50: thallium influx in KV1.3 cells; for KV 1.3 Efficacy (inhibition of thallium influx as a % of positive control): relative to 1 μM psoralen; for KV 1.3 IC50: mean ± SD from two to three experiments
hERG channel [4] = molecular target: T2, hERG channel (Homo sapiens, UniProt Q12809); assay: Automated whole cell patch clamp, hERG tail current in hERG CHO-K1 cells
wild type U-2 OS cells = assay: FluxOR thallium influx assay in wild type; format: cell-based, human; details: non-hERG transduced cells
hERG channel [5] = molecular target: T2, hERG channel
hERG channel [6] = molecular target: T2, hERG channel; remark: listed apart in the source
hERG channel [7] = molecular target: T2, hERG channel; assay: FluxOR thallium influx assay in hERG transduced U-2 OS cells; details: for IC50 in the thallium influx assay (QAC series follow-up): quaternary ammonium compound series and digitonin control, hERG cells; for Confirmation Efficacy (inhibition of thallium influx as a % of positive control): confirmation study, hERG transduced cells, mean ± SD of three experiments
KV1.3 versus hERG [8] = molecular target: T1, KV1.3 versus hERG; assay: in vitro
[9] = 30-minute treatment, hERG transduced U-2 OS cells
[10] = automated whole cell patch clamp, hERG tail current, hERG CHO-K1 cells, room temperature
[11] = read-out: Patch clamp IC50, automated whole cell patch clamp, hERG tail current, hERG CHO-K1 cells, room temperature

T1 sequence (P22001 whole entry): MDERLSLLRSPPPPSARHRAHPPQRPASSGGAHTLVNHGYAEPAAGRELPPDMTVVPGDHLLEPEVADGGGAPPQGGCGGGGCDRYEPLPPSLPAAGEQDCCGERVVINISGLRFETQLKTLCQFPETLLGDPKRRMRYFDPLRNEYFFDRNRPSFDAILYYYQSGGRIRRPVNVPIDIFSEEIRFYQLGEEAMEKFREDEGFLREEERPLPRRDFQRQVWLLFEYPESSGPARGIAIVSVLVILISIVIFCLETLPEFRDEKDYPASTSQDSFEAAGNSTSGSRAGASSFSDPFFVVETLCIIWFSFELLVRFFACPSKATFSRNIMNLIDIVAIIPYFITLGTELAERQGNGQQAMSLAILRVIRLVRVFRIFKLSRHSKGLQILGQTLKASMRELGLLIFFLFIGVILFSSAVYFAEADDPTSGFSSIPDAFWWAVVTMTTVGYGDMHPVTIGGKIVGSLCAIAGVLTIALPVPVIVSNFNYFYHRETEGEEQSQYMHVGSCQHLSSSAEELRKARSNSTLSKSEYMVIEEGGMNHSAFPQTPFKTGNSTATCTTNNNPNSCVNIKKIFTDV
Sequence of human KV1.3 voltage gated K+ channel (P22001 whole entry): as above
T2 sequence (Q12809 whole entry): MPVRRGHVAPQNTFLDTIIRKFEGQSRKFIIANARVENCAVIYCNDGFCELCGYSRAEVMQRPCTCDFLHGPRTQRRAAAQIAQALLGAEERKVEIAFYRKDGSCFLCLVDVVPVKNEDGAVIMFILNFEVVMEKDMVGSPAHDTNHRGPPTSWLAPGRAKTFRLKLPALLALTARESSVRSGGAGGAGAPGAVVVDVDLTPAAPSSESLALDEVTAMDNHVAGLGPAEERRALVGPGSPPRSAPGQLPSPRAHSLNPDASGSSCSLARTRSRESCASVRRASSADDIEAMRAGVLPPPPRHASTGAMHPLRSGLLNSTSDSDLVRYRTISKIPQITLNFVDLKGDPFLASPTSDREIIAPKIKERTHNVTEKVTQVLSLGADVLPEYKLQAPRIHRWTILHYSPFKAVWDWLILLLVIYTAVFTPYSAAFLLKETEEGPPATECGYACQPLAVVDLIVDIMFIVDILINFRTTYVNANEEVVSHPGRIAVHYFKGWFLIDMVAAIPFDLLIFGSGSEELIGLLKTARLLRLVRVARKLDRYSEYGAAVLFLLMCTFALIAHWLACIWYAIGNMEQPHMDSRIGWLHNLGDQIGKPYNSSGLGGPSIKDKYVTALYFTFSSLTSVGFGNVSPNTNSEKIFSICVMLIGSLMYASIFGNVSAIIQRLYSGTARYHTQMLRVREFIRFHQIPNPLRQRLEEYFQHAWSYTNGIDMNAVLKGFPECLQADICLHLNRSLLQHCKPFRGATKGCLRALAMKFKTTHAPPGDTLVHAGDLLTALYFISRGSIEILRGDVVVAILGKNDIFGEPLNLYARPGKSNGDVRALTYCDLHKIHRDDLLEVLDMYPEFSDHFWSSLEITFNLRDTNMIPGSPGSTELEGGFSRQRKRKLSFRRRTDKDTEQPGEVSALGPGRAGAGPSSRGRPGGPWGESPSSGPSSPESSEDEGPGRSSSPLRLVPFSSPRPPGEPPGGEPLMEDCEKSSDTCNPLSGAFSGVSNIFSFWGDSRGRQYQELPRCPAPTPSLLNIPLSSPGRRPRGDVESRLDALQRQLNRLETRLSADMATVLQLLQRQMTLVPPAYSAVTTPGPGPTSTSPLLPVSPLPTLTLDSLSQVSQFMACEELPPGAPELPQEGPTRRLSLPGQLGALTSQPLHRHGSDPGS

CCCCCCCCCCCC[N+](C)(C)CCOc1ccccc1 [domiphen bromide]
IC50 at 30 min (in vitro): 65 µM
Maximum inhibition of cell viability [1, 9]: 33%
selectivity ratio at 2 min (KV1.3 versus hERG [2]): 1.2
IC50 [3]: 5.2 ± 0.6 µM
Selectivity Fold (hERG over KV1.3) [3]: no selectivity
KV 1.3 Efficacy (inhibition of thallium influx as a % of positive control) [3]: 102 ± 22%
IC50 (hERG channel [4]): 1.5 µM

O=C([O-])c1c(Cl)c(Cl)c(Cl)c(Cl)c1-c1c2cc(Br)c(=O)c(Br)c-2oc2c(Br)c([O-])c(Br)cc12.[Na+].[Na+] [D&C red dye 27]
Inhibition of thallium influx in parental (wild type) cells (wild type U-2 OS cells): inhibitory effect
Confirmation Efficacy (inhibition of thallium influx as a % of positive control) (hERG channel [5]): 173 ± 41%
IC50 (hERG channel [6]): > 100 µM

C[N+](C)(C)Cc1ccccc1 [benzyltrimethylammonium chloride]
Patch clamp IC50 (hERG channel [4]; [10]): inactive
IC50 in the thallium influx assay (QAC series follow-up) (hERG channel [7]): inactive

Clc1ccc(COC(Cn2ccnc2)c2ccc(Cl)cc2Cl)cc1 (stereo not drawn) [econazole nitrate, reference compound]
IC50 [3]: 30 ± 2 µM
KV 1.3 Efficacy (inhibition of thallium influx as a % of positive control) [3]: 104 ± 10%

Clc1ccc(C(c2ccccc2Cl)C(Cl)(Cl)Cl)cc1 (stereo not drawn) [o,p′-DDT, 1,1,1-trichloro-2-(2-chlorophenyl)-2-(4-chlorophenyl)ethane]
qHTS (two runs) Efficacy (inhibition of thallium influx as a % of positive control) (hERG channel [5]; human): 56 ± 2%
selectivity ratio (KV1.3 versus hERG [8]): 1.6
IC50 [3]: 35 µM
Selectivity Fold (hERG over KV1.3) [3]: no selectivity
KV 1.3 IC50 [3]: either IC50 values >30 μM or were inactive
KV 1.3 Efficacy (inhibition of thallium influx as a % of positive control) [3]: 61%
IC50 (hERG channel [4]): 2.6 µM
Confirmation Efficacy (inhibition of thallium influx as a % of positive control) (hERG channel [7]): 58 ± 8%

tricresyl phosphate
qHTS (two runs) Efficacy (inhibition of thallium influx as a % of positive control) (hERG channel [5]): 82 ± 11%
Selectivity Fold (hERG over KV1.3) [3]: 2.7 fold
KV 1.3 Efficacy (inhibition of thallium influx as a % of positive control) [3]: 68 ± 17%
IC50 (hERG channel [4]; [11]): 8.8 µM
Confirmation Efficacy (inhibition of thallium influx as a % of positive control) (hERG channel [7]): 68 ± 16%

COC(=O)[C@H]1[C@H]2C[C@@H]3c4[nH]c5cc(OC)ccc5c4CCN3C[C@H]2C[C@@H](OC(=O)c2cc(OC)c(OC)c(OC)c2)[C@@H]1OC [reserpine, reference compound]
selectivity ratio at 2 min (KV1.3 versus hERG [2]): 11.8
IC50 [3]: 58 ± 18 µM
KV 1.3 IC50 [3]: either IC50 values >30 μM or were inactive
KV 1.3 Efficacy (inhibition of thallium influx as a % of positive control) [3]: 78 ± 7%
IC50 (hERG channel [4]): 1.9 µM
IC50 (hERG channel [7]; Confirmation IC50 (thallium influx, hERG)): 4.9 ± 1.7 µM
IC50 (hERG channel [7]; qHTS (two runs) IC50): 7.5 ± 3.5 µM

CCCCCCc1ccc(-c2ccc(C#N)cc2)cc1 [4-N-hexyl-4′-cyanobiphenyl, 4′-N-hexyl-4-biphenylcarbonitrile]
Confirmation IC50 (thallium influx, hERG) (hERG channel [5]): Inactive
IC50 (hERG channel [5]): 8.2 ± 2.6 µM

CCCCCCCC[N+](CCCCCCCC)(CCCCCCCC)CCCCCCCC.[Br-] [tetra-n-octylammonium bromide]
Maximum inhibition of cell viability [1, 9]: 50%
IC50 [1, 9]: 34 µM
qHTS (two runs) Efficacy (inhibition of thallium influx as a % of positive control) (hERG channel [5]): 102 ± 4%
Selectivity Fold (hERG over KV1.3) [3]: 42 fold
KV 1.3 Efficacy (inhibition of thallium influx as a % of positive control) [3]: 72 ± 16%
IC50 (hERG channel [4]; read-out: IC50 in the patch clamp assay, as stated in abstract): 0.08 µM
IC50 (hERG channel [4]; [11]): 0.082 µM
Confirmation Efficacy (inhibition of thallium influx as a % of positive control) (hERG channel [7]): 100 ± 3%

Nc1ccc2cc3ccccc3cc2c1 [2-aminoanthracene]
Inhibition of thallium influx in parental (wild type) cells (wild type U-2 OS cells): inhibitory effect
qHTS (two runs) Efficacy (inhibition of thallium influx as a % of positive control) (hERG channel [5]; human): 61 ± 3%
IC50 (hERG channel [4]): > 100 µM
Confirmation Efficacy (inhibition of thallium influx as a % of positive control) (hERG channel [7]): 67 ± 19%

COc1ccc(CCN(C)CCCC(C#N)(c2ccc(OC)c(OC)c2)C(C)C)cc1OC (stereo not drawn) [verapamil, reference compound]
KV 1.3 Efficacy (inhibition of thallium influx as a % of positive control) [3]: 88 ± 12%

C=C[C@H]1C[N@@]2CC[C@H]1C[C@@H]2[C@@H](O)c1ccnc2ccc(OC)cc12 [quinidine, reference compound]
KV 1.3 IC50 [3]: either IC50 values >30 μM or were inactive; also recorded: Inactive

C[N+](C)(C)CCCCCCCCCC[N+](C)(C)C [decamethonium dibromide]
Patch clamp IC50 (hERG channel [4]; [10]): inactive
IC50 in the thallium influx assay (QAC series follow-up) (hERG channel [7]): inactive

C[C@@H]1CC[C@@]2(OC1)O[C@H]1[C@@H](O)[C@H]3[C@@H]4CC[C@H]5C[C@@H](O[C@@H]6O[C@H](CO)[C@H](O[C@@H]7O[C@H](CO)[C@@H](O)[C@H](O[C@@H]8OC[C@@H](O)[C@H](O)[C@H]8O)[C@H]7O[C@@H]7O[C@H](CO)[C@H](O)[C@H](O[C@@H]8O[C@H](CO)[C@@H](O)[C@H](O)[C@H]8O)[C@H]7O)[C@H](O)[C@H]6O)[C@H](O)C[C@]5(C)[C@H]4CC[C@]3(C)[C@H]1[C@@H]2C [digitonin, reference compound]
Inhibitory effect on hERG channel activity in the patch clamp experiment (hERG channel [4]; at 1 μM (the highest noncytotoxic concentration)): no inhibitory effect

CN(C)c1ccc(C(=C2C=CC(=[N+](C)C)C=C2)c2ccccc2)cc1.CN(C)c1ccc(C(=C2C=CC(=[N+](C)C)C=C2)c2ccccc2)cc1.O=C(O)C(=O)O.O=C([O-])C(=O)O.O=C([O-])C(=O)O [malachite green oxalate]
Maximum inhibition of cell viability [1]: 72%
IC50 [1, 9]: 31 µM
qHTS (two runs) Efficacy (inhibition of thallium influx as a % of positive control) (hERG channel [5]): 97 ± 3%
Selectivity Fold (hERG over KV1.3) [3]: 6.5 fold
KV 1.3 IC50 [3]: either IC50 values >30 μM or were inactive
KV 1.3 Efficacy (inhibition of thallium influx as a % of positive control) [3]: 89%
IC50 (hERG channel [4]; [11]): 1.9 µM
Confirmation Efficacy (inhibition of thallium influx as a % of positive control) (hERG channel [7]): 108 ± 7%

trixylenyl phosphate
qHTS (two runs) Efficacy (inhibition of thallium influx as a % of positive control) (hERG channel [5]): 67 ± 12%
Patch clamp IC50 (hERG channel [4]; [10]): did not inhibit hERG channel activity
IC50 (hERG channel [4]; [11]): > 100 µM
Confirmation Efficacy (inhibition of thallium influx as a % of positive control) (hERG channel [7]): 43 ± 15%

N=C(Nc1ccccc1)Nc1ccccc1 [1,3-diphenylguanidine]
KV 1.3 IC50 [3]: Inactive
